Measurements published in patent publication US9523100B2, “Pesticidal compositions and related methods” (DOW AGROSCIENCES LLC, priority 2013, dated 2016).
Where two headings read alike, the source gives them in different places.

Legend:
[1] = tested on: Green Peach Aphid (GPA) (Myzus persicae) (MYZUPE); assay: Bioassay for Green Peach Aphid (GPA), foliar spray on cabbage seedlings; type: in vivo; conditions: 72 h, read-out: GPA 200 ppm, % Control (or Mortality) rating
How it was run: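 Foliar spray test: 200 ppm solutions (0.025% Tween 20 in water, 20% acetone/methanol) applied to both leaf sides of aphid-infested cabbage seedlings. After 3 days at about 25° C, live aphids per plant were counted; control corrected to solvent check via Abbott's formula.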

[2] = tested on: Sweetpotato Whitefly-Crawler (WF) (Bemisia tabaci) (BEMITA); assay: Insecticidal test for Sweetpotato Whitefly-Crawler (WF) in foliar spray assay on cotton plants; type: in vivo; conditions: 216 h, read-out: WF 200 ppm, % Control (or Mortality) rating
How it was run: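 Whitefly nymph control on egg-infested cotton (eggs laid 4–5 days pre-treatment), foliar spray at 200 ppm test compound. Live late-stage nymphs counted microscopically 9 days later at ~25 °C; control calculated by Abbott's formula relative to acetone-diluent-sprayed plants.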

[3] = 200 ppm foliar spray on cabbage seedlings, graded after three days, Abbott corrected % control
[4] = 200 ppm foliar spray on cotton plants, graded after 9 days, Abbott corrected % control

Row | SMILES | mortality at 200 ppm [1, 3] [%] | mortality at 200 ppm [2, 4] [%] | mortality at 200 ppm ([1]; foliar) [%] | mortality at 200 ppm ([2]; foliar) [%]
1 | CCN(C(=O)C(C)Cl)c1cn(-c2cccnc2)nc1Cl (stereo not shown) [Compound C10, 2-Chloro-N-(3-chloro-1-(pyridin-3-yl)-1H-pyrazol-4-yl)-N-ethylpropanamide] | 80 to 100 | 80 to 100 | – | –
2 | CCN(C(=O)CCCN1CCOC1=O)c1cn(-c2cccnc2)nc1Cl [FA34, N-(3-Chloro-1-(pyridin-3-yl)-1H-pyrazol-4-yl)-N-ethyl-4-(2-oxooxazolidin-3-yl)butanamide] | 80 to 100 | 80 to 100 | – | –
3 | CCN(C(=O)CCC(=O)NCC(F)(F)F)c1cn(-c2cccnc2)nc1Cl [Compound F67, N1-(3-Chloro-1-(pyridin-3-yl)-1H-pyrazol-4-yl)-N1-ethyl-N4-(2,2,2-trifluoroethyl)succinamide] | 80 to 100 | 80 to 100 | – | –
4 | CCN(C(=O)CN(C)C(=O)CC(F)(F)F)c1cn(-c2cccnc2)nc1Cl [Compound F120, N-(2-((3-Chloro-1-(pyridin-3-yl)-1H-pyrazol-4-yl)(ethyl)amino)-2-oxoethyl)-3,3,3-trifluoro-N-methylpropanamide] | 80 to 100 | 80 to 100 | – | –
5 | CCN(C(=O)CCC1CNC1=O)c1cn(-c2cccnc2)nc1Cl (stereo not shown) [Compound F50] | 0 to 80 | 80 to 100 | – | –
6 | CCN(C(=O)C1CCN(C(=O)c2cccnc2)C1)c1cn(-c2cccnc2)nc1Cl (stereo not shown) [FA12, N-(3-Chloro-1-(pyridin-3-yl)-1H-pyrazol-4-yl)-N-ethyl-1-nicotinoylpyrrolidine-3-carboxamide] | 0 to 80 | 0 to 80 | – | –
7 | CCN(C(=O)CCC(=O)N1CCCCC1)c1cn(-c2cccnc2)nc1Cl [Compound F21, N-(3-Chloro-1-(pyridin-3-yl)-1H-pyrazol-4-yl)-N-ethyl-4-oxo-4-(piperidin-1-yl)butanamide] | 0 to 80 | 80 to 100 | – | –
8 | CCN(C(=O)C1CN(C(=O)CCC#N)C1)c1cn(-c2cccnc2)nc1Cl [FA16, N-(3-Chloro-1-(pyridin-3-yl)-1H-pyrazol-4-yl)-1-(3-cyanopropanoyl)-N-ethylazetidine-3-carboxamide] | 0 to 80 | 0 to 80 | – | –
9 | CCN(C(=O)CCN(C(C)=O)C1CC1)c1cn(-c2cccnc2)nc1Cl [Compound F9, N-(3-Chloro-1-(pyridin-3-yl)-1H-pyrazol-4-yl)-3-(N-cyclopropylacetamido)-N-ethylpropanamide] | 80 to 100 | 0 to 80 | – | –
10 | CN(C(=O)CN1CCCCCC1=O)c1cn(-c2cccnc2)nc1Cl [Compound F22, N-(3-Chloro-1-(pyridin-3-yl)-1H-pyrazol-4-yl)-N-methyl-2-(2-oxoazepan-1-yl)acetamide] | 0 to 80 | 80 to 100 | – | –
11 | CCN(C(=O)CCN(C)C(C)=O)c1cn(-c2cccnc2)nc1Cl [Compound F64, N-(3-chloro-1-(pyridin-3-yl)-1H-pyrazol-4-yl)-N-ethyl-3-(N-methylacetamido) propanamide] | 80 to 100 | 80 to 100 | – | –
12 | CCN(C(=O)CCN(C)C(=O)OC(C)(C)C)c1cn(-c2cccnc2)nc1Cl [Compound F52, tert-Butyl (3-((3-chloro-1-(pyridin-3-yl)-1H-pyrazol-4-yl)(ethyl)amino)-3-oxopropyl)(methyl) carbamate] | – | – | 80 to 100 | 80 to 100
13 | CCN(C(=O)CCNC(=O)Cc1ccc(F)cc1)c1cn(-c2cccnc2)nc1Cl [Compound F46, N-(3-Chloro-1-(pyridin-3-yl)-1H-pyrazol-4-yl)-N-ethyl-3-(2-(4-fluorophenyl)acetamido) propanamide] | 0 to 80 | 80 to 100 | – | –
14 | CCN(C(=O)CC/C(=N/OCc1ccc(C(F)(F)F)nc1)c1cccs1)c1cn(-c2cccnc2)nc1Cl [FA37, (Z)-N-(3-Chloro-1-(pyridin-3-yl)-1H-pyrazol-4-yl)-N-ethyl-4-(thiophen-2-yl)-4-(((6-(trifluoromethyl)pyridin-3-yl)methoxy)imino)butanamide] | 0 to 80 | 80 to 100 | – | –
15 | CCN(C(=O)C1CCN(C(=O)CCC#N)C1)c1cn(-c2cccnc2)nc1Cl (stereo not shown) [FA11, N-(3-Chloro-1-(pyridin-3-yl)-1H-pyrazol-4-yl)-1-(3-cyanopropanoyl)-N-ethylpyrrolidine-3-carboxamide] | 80 to 100 | 80 to 100 | – | –
16 | CCN(C(=O)CCN1CCOC1=O)c1cn(-c2cccnc2)nc1Cl [Compound F69, N-(3-Chloro-1-(pyridin-3-yl)-1H-pyrazol-4-yl)-N-ethyl-3-(2-oxooxazolidin-3-yl)propanamide] | 80 to 100 | 80 to 100 | – | –

Row | SMILES | mortality at 200 ppm [1, 3] [%] | mortality at 200 ppm [2, 4] [%] | mortality at 200 ppm ([1]; foliar) [%] | mortality at 200 ppm ([2]; foliar) [%]
17 | CCN(C(=O)C(C)N(C)C(=O)N(C)C)c1cn(-c2cccnc2)nc1Cl (stereo not shown) [Compound F114, N-(3-Chloro-1-(pyridin-3-yl)-1H-pyrazol-4-yl)-N-ethyl-2-(1,3,3-trimethylureido)propanamide] | 80 to 100 | 80 to 100 | – | –
18 | CCN(C(=O)CCC(=O)NCC1CCCCC1)c1cn(-c2cccnc2)nc1Cl [Compound F15, N1-(3-Chloro-1-(pyridin-3-yl)-1H-pyrazol-4-yl)-N4-(cyclohexylmethyl)-N1-ethylsuccinamide] | 0 to 80 | 80 to 100 | – | –
19 | CCN(C(=O)C1CN(C(=O)CC(F)(F)F)C1)c1cn(-c2cccnc2)nc1Cl [Compound P24, N-(3-Chloro-1-(pyridin-3-yl)-1H-pyrazol-4-yl)-N-ethyl-1-(3,3,3-trifluoropropanoyl)azetidine-3-carboxamide] | 80 to 100 | 0 to 80 | – | –
20 | CCN(C(=O)CCNC(=O)CC1CC1)c1cn(-c2cccnc2)nc1Cl [Compound F75, N-(3-Chloro-1-(pyridin-3-yl)-1H-pyrazol-4-yl)-3-(2-cyclopropylacetamido)-N-ethylpropanamide] | 80 to 100 | 80 to 100 | – | –
21 | CCN(C(=O)CCNCC(F)F)c1cn(-c2cccnc2)nc1Cl [Compound C14, N-(3-chloro-1-(pyridin-3-yl)-1H-pyrazol-4-yl)-3-((2,2-difluoroethyl)amino)-N-ethylpropanamide] | 80 to 100 | 80 to 100 | – | –
22 | CCN(C(=O)CC/C(C)=N/Oc1cccc(C(F)(F)F)n1)c1cn(-c2cccnc2)nc1Cl [Compound F59, (E/Z)-N-(3-Chloro-1-(pyridin-3-yl)-1H-pyrazol-4-yl)-N-ethyl-4-(((6-(trifluoromethyl)pyridin-2-yl)oxy)imino)pentanamide] | 80 to 100 | 80 to 100 | – | –
23 | CCN(C(=O)C1CCN(C(=O)CCC(F)(F)F)CC1)c1cn(-c2cccnc2)nc1Cl [FA6, N-(3-Chloro-1-(pyridin-3-yl)-1H-pyrazol-4-yl)-N-ethyl-1-(4,4,4-trifluorobutanoyl)piperidine-4-carboxamide] | 80 to 100 | 0 to 80 | – | –
24 | CN(C(=O)CCN1CCSC1=O)c1cn(-c2cccnc2)nc1Cl [Compound F38, N-(3-Chloro-1-(pyridin-3-yl)-1H-pyrazol-4-yl)-N-methyl-3-(2-oxothiazolidin-3-yl)propanamide] | 80 to 100 | 80 to 100 | – | –
25 | CN(C(=O)CN1CCSC1=O)c1cn(-c2cccnc2)nc1Cl [Compound F7, N-(3-Chloro-1-(pyridin-3-yl)-1H-pyrazol-4-yl)-N-methyl-2-(2-oxothiazolidin-3-yl)acetamide] | 0 to 80 | 80 to 100 | – | –
26 | CCN(C(=O)CCC1CN(CC2CC2(F)F)C1=O)c1cn(-c2cccnc2)nc1Cl (stereo not shown) [Compound F74, N-(3-Chloro-1-(pyridin-3-yl)-1H-pyrazol-4-yl)-3-1(1-((2,2-difluorocyclopropyl)methyl)-2-oxoazetidin-3-yl)-N-ethylpropanamide] | 80 to 100 | 80 to 100 | – | –
27 | CCN(C(=O)C1CCN(C(=O)CC(F)(F)F)CC1)c1cn(-c2cccnc2)nc1Cl [Compound P16, N-(3-chloro-1-(pyridin-3-yl)-1H-pyrazol-4-yl)-N-ethyl-1-(3,3,3-trifluoropropanoyl) piperidine-4-carboxamide] | 80 to 100 | 0 to 80 | – | –
28 | CCN(C(=O)C1CCCN(C(=O)C(C)C)C1)c1cn(-c2cccnc2)nc1Cl (stereo not shown) [FA3, N-(3-Chloro-1-(pyridin-3-yl)-1H-pyrazol-4-yl)-N-ethyl-1-isobutylylpiperidine-3-carboxamide] | 80 to 100 | 80 to 100 | – | –
29 | CCN(C(=O)CCNC(=O)C1(C)CC1(F)F)c1cn(-c2cccnc2)nc1Cl (stereo not shown) [Compound F113, N-(3-((3-chloro-1-(pyridin-3-yl)-1H-pyrazol-4-yl)(ethyl)amino)-3-oxopropyl)-2,2-difluoro-1-methylcyclopropanecarboxamide] | 80 to 100 | 80 to 100 | – | –
30 | CCN(C(=O)CCN(C)C(=O)N(C)C)c1cn(-c2cccnc2)nc1Cl [Compound F121, N-(3-Chloro-1-(pyridin-3-yl)-1H-pyrazol-4-yl)-N-ethyl-3-(1,3,3-trimethylureido)propanamide] | 80 to 100 | 80 to 100 | – | –
31 | CN(C(=O)CN1CCCCC1=O)c1cn(-c2cccnc2)nc1Cl [Compound F77, N-(3-Chloro-1-(pyridin-3-yl)-1H-pyrazol-4-yl)-N-methyl-2-(2-oxopiperidin-1-yl)acetamide] | 80 to 100 | 80 to 100 | – | –
32 | CCN(C(=O)CC(C)=O)c1cn(-c2cccnc2)nc1Cl [FA66, N-(3-chloro-1-(pyridin-3-yl)-1H-pyrazol-4-yl)-N-ethyl-3-oxobutanamide] | 80 to 100 | 80 to 100 | – | –
